In BindingDB's records for doi:10.1016/j.bmc.2019.01.024 (2019) one finds IC50 data, which are given here for five compounds.

Assay [1] in a line: Inhibition of mouse GAT3 expressed in HEK293 cells assessed as reduction in [3H]GABA uptake preincubated for 25 mins followed by [3H]GABA addition and measured after 4 mins by microbeta liquid scintillation counting method.
The nature of assay [2]: Inhibition of mouse GAT2 expressed in HEK293 cells assessed as reduction in [3H]GABA uptake preincubated for 25 mins followed by [3H]GABA addition and measured after 10 mins by microbeta liquid scintillation counting method.
Assay [3] has as its target T1, Sodium- and chloride-dependent GABA transporter 2 (Mus musculus, UniProt P31649).
T1 sequence (P31649 whole entry): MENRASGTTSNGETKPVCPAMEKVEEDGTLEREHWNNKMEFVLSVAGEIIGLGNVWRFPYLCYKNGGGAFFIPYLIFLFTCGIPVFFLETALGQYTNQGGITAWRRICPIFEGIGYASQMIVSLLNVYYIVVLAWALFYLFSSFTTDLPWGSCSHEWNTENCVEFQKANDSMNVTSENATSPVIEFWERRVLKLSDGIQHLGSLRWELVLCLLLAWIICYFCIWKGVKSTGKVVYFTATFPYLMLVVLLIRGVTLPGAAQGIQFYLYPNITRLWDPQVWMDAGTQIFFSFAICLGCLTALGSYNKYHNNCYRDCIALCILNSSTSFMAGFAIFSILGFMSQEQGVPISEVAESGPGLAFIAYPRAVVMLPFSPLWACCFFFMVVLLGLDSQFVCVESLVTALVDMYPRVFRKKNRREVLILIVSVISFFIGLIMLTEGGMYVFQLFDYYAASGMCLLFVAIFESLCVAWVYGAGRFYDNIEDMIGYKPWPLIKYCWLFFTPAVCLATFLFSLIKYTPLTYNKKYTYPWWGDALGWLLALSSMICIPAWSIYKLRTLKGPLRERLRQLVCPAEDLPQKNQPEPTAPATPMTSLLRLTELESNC
In words: Inhibition of mouse GAT2 expressed in HEK293 cells assessed as reduction in [3H]GABA uptake preincubated for 25 mins followed by [3H]GABA addition and measured after 10 mins by microbeta liquid scintillation counting method.

In general, IC50 refers to the concentration that inhibits the measured activity by half. `COc1ccc(C(/C=C\CN2CCCC(C(=O)O)C2)(c2ccc(OC)cc2)c2ccc3c(c2)OCO3)cc1` (stereo unspecified): the IC50 in assay [1] was found to be 45.7 µM; in assay [2] it was 61.7 µM.
For `COc1ccc(C(/C=C\CN2CCCC(C(=O)O)C2)(c2ccc(OC)cc2)c2ccsc2)cc1` (stereo unspecified), in assay [2], the IC50 worked out at 89.1 µM.
Same read-out and setting: then `O=C(O)C1CCCN(CC/C=C\C(c2ccccc2)(c2ccccc2)c2ccccc2)C1` (stereo unspecified), with 55 µM.
Consider `COc1ccc(C(/C=C\CN2CCCC(C(=O)O)C2)(Cc2ccccc2)c2ccc(OC)cc2)cc1` (stereo unspecified), for which the 50% inhibitory concentration (IC50) in assay [3] came out at 30.2 µM.
For `COc1ccc(C(C/C=C\CN2CCCC(C(=O)O)C2)(c2ccc(OC)cc2)c2ccc(OC)cc2)cc1` (stereo unspecified), the 50% inhibitory concentration (IC50) in assay [1] was 85.1 µM.
